Test results from patent US20240197733A1, “A GABA RECEPTOR MODULATOR FOR USE IN THE TREATMENT OF PAIN” (SANIONA A/S, priority 2021, published 2024).

What was measured:
Format in all cases: in vivo, Sprague-Dawley rats
[1] = test system: electrocutaneous stimulation-induced facial pain rodent model; experiment: ES-induced facial pain model, prophylactic treatment, overall conclusion (mechanical and thermal tests); conditions: po
Description: Unless stated otherwise, the same materials, methods, and provisions of Example 1 were applied to Example 2. The experimenter assessing the behavioral responses to drug administration is blinded to the drug treatment to the animals. Each treatment group is coded according the scheme below: • A. Vehicle (5% DMSO+30% HPBCD): 10 ml/kg • B. Compound 1: 0.3 mg/kg • C. Compound 1: 1 mg/kg • D. Compound 1: 3 mg/kg • F. Compound 1: 3 mg/kg—acute Second baseline measurement was carried out similarly to day 1, For each animal, the average of the two baseline nociceptive measurements was calculated within each pain modality (mechanical, heat- and cold pain), and used as baseline (“Baseline” point on figures). Then all rats in the above respective group (A-D) are given treated as mentioned. Group F received vehicle treatment. Treatment is continued once daily to each group same as Day 2 All rats were treated with respective treatment as per day 3-7. After 1 hr of treatment, each rat was subjected to 1 hr of electrocutaneous stimulation at depilated cheek (0.4 mA intensity, 10 ms duration, 1 s inter-pulse interval). […] Treatment effects on pain thresholds were evaluated 2- and 4 hours after administration by assessing mechanical- (Von Frey) and thermal (heat and cold) withdrawal threshold.

[2] = test system: electrocutaneous stimulation-induced facial pain rodent model; experiment: ES-induced facial pain model, mechanical allodynia (Von Frey filaments), acute treatment; conditions: for effect on mechanical allodynia (mechanical pain threshold, Von Frey) vs vehicle: acute
Description: (§1) The electrocutaneous stimulation-induced facial pain rodent model is a reproducible orofacial pain model in which depilated cheek area of rats are repeatedly subjected to electrical stimulation. Repeated electrical stimulation at low intensities produces craniofacial pain that mimics the behavioral characteristics of TN such as development of mechanical and thermal allodynia at cheeks despite no visible edema, swelling or excessive injury and tissue damage.
(§2) Male wild type, Sprague-Dawley rats (Charles River Laboratories) born in-house at AfaSci Research Laboratory between May 24, 2020 to May 28, 2020. At approximately 3 months of age (approximately 350 g-450 g body weight) the rats were deemed suitable for the electrocutaneous stimulation-induced facial pain model. Prior to the experiment, the rats were maintained in group cages (3 rats per cage) in a controlled environment (temperature: 21.5±4.5° C./relative humidity: 35-55%) under a standard 12 h light/12 h dark lighting cycle (lights on at 06:00).
(§3) The required quantity of the compounds are weighed and dissolved in 100% DMSO in a volume amounting to 5% of the total volume while placed on a stirrer. The weight of the compounds refers to the free base weights. Once the solution becomes clear/transparent, the remaining volume of the vehicle is added (30% HPBCD prepared in MQ water) to final concentrations of 0.1, 0.3, and 1 mg/ml for Compound 1 and 3 mg/ml of Carbamazepine. The solutions are kept on a stirrer before- and during administration of the compounds to the animals.
(§4) The experimenter assessing the behavioral responses to drug administration is blinded to the drug treatment to the animals. Each treatment group is coded according the scheme below: • A. Vehicle (5% DMSO+30% HPBCD): 10 ml/kg • B. Compound 1: 1 mg/kg • C. Compound 1: 3 mg/kg • D. Compound 1: 10 mg/kg • F. Carbamazepine: 30 mg/kg
Second baseline measurement was carried out similarly to day 1. […] For each animal, the average of the two baseline nociceptive measurements were calculated within each pain modality (mechanical, heat- and cold pain), and used as baseline (“Baseline” point on figures).
Similarly, to day 1- and 2, all rats were subjected to acclimatization to test equipment and decapicone followed by measurements of ES-induced facial mechanical- heat- and cold allodynia (“0” time point on figures). […] Compound 1, vehicle and Carbamazepine was administered perorally in doses of 1, 3, and 10 mg/kg (Compound 1) or 30 mg/kg (carbamazepine) and drug effects on pain thresholds were evaluated 2- and 4 hours after drug administration by assessment of mechanical- (von Frey) and thermal hypersensitivity (heat- and cold stimulation respectively).
(§5) Decrease in ES-induced pain threshold was evaluated 22 hours following electrical stimulation of the depilated left cheek area (between the eye and ear ridge, this is a receptive field of trigeminal nerve) of each rat and was manifested as facial withdrawal following application of Von Frey filaments for mechanical allodynia and a heat lamp and acetone test for thermal hyperalgesia and allodynia respectively. Baseline pain behaviors were measured similarly to ES-induced facial pain measurements, except that rats were not subjected to ES stimulation.
Mechanical pain thresholds were assessed by measuring each rat's facial withdrawal threshold (g) in response to von Frey monofilaments (BioSeb). […]

[3] = test system: electrocutaneous stimulation-induced facial pain rodent model; experiment: ES-induced facial pain model, hot thermal hyperalgesia (lamp test, selective C fiber testing), acute treatment
Description: as §1, §2, §3, §4
Second baseline measurement was carried out similarly to day 1. Immediately following the second baseline recording, each rat received 1 hr of electrocutaneous stimulation at cheek (0.4 mA intensity, 10 ms duration, 1 s inter-pulse interval). For each animal, the average of the two baseline nociceptive measurements were calculated within each pain modality (mechanical, heat- and cold pain), and used as baseline (“Baseline” point on figures).
Similarly, to day 1- and 2, all rats were subjected to acclimatization to test equipment and decapicone followed by measurements of ES-induced facial mechanical- heat- and cold allodynia (“0” time point on figures). Based on the individual rat's mechanical- and thermal hypersensitivity, 40 rats were selected for drug testing. Compound 1, vehicle and Carbamazepine was administered perorally in doses of 1, 3, and 10 mg/kg (Compound 1) or 30 mg/kg (carbamazepine) and drug effects on pain thresholds were evaluated 2- and 4 hours after drug administration by assessment of mechanical- (von Frey) and thermal hypersensitivity (heat- and cold stimulation respectively).
as §5
Immediately following assessment of mechanical pain threshold, thermal (hot- and cold induced) pain was determined. […]

SMILES: COc1ncc(-c2cccc(-n3cnc4cc(C(C)(C)O)cnc43)c2)c(OC)n1 [Compound 1, 2-(3-(3-(2,4-dimethoxypyrimidin-5-yl)phenyl)-3H-imidazo[4,5-b]pyridin-6-yl)propan-2-ol]
- analgesic effect compared with 10 mg/kg acute dose of Compound 1 or 30 mg/kg of Carbamazepine ([1]; once daily dose of 3 mg/kg, prophylactic): same analgesic effect
- development of ES-induced sensitization (hypersensitivity to mechanical and thermal stimulus) ([1]; prophylactic treatment for 7 days, once daily dose): significantly reduced the development of ES-induced sensitization of the trigeminal sensory system
- effect on mechanical allodynia (mechanical pain threshold, Von Frey) vs vehicle ([2]; 3 mg/kg po, 4 hours post dosing, p<0.05 vs vehicle): significant analgesic effect
- effect on mechanical allodynia (mechanical pain threshold, Von Frey) vs vehicle ([2]; 10 mg/kg po, 2 hrs, p<0.05 vs vehicle): reversed the mechanical allodynia
- effect on mechanical allodynia (mechanical pain threshold, Von Frey) vs vehicle ([2]; 10 mg/kg po, 4 hours post dosing, p<0.0001 vs vehicle): significant analgesic effect
- analgesic effect on mechanical allodynia compared with carbamazepine 30 mg/kg p.o. ([2]; 10 mg/kg po, post 4 hrs of treatment): comparable analgesic effect with carbamazepine
- effect on heat thermal hyperalgesia (facial withdrawal latency) vs vehicle ([3]; 3 mg/kg po, post 2 and 4 hrs, p<0.05 and p<0.001 vs vehicle): significantly reversed the mechanical allodynia
- effect on heat thermal hyperalgesia (facial withdrawal latency) vs vehicle ([3]; 10 mg/kg po, 2 and 4 hrs post dose, p<0.0001): significantly produced reversal of hyperalgesia
- reversal of hyperalgesia in the thermal heat test (conclusion) ([3]; 10 mg/kg po, highest dose tested, similar to Carbamazepine 30 mg/kg): full reversal of hyperalgesia
- effect on heat thermal hyperalgesia (facial withdrawal latency), dose dependence ([3]; 1, 3 and 10 mg/kg po): dose dependently reversed the heat thermal hyperalgesia
- minimal effective dose, heat thermal hyperalgesia ([3]; po, p<0.01 and p<0.05 vs vehicle 2 and 4 hrs post dose): 1 mg/kg
